Test results: ChEMBL document CHEMBL1201861, “Genomics of Drug Sensitity in Cancer screening data, Wellcome Trust Sanger Institute”

Columns and labels:
Experiment in all cases: cells
Conditions in all cases: Homo sapiens
CP66-MEL = format: functional, cell-based;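 note: growth inhibition of CP66-MEL cells determined in a cell viability assay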
Description: SANGER: Inhibition of human CP66-MEL cell growth in a cell viability assay.

CTB-1 = format: functional, cell-based
Description: SANGER: Inhibition of human CTB-1 cell growth in a cell viability assay.

CW-2 = format: functional, cell-based;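 note: growth inhibition of CW-2 cells, read out by a cell viability assay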
Description: SANGER: Inhibition of human CW-2 cell growth in a cell viability assay.

D283 Med = format: functional, cell-based
Description: SANGER: Inhibition of human D-283MED cell growth in a cell viability assay.

D-502MG = format: functional, cell-based
Description: SANGER: Inhibition of human D-502MG cell growth in a cell viability assay.

DMS-114 = format: functional, cell-based
DMS-79 = format: functional, cell-based;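 note: growth inhibition measured with a cell viability assay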
Description: SANGER: Inhibition of human DMS-79 cell growth in a cell viability assay.

DU-4475 = format: functional, cell-based
Description: SANGER: Inhibition of human DU-4475 cell growth in a cell viability assay.

EC-GI-10 = format: functional, cell-based
Description: SANGER: Inhibition of human EC-GI-10 cell growth in a cell viability assay.

ES1 = format: functional, cell-based
Description: SANGER: Inhibition of human ES1 cell growth in a cell viability assay.

ES3 = format: functional, cell-based;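 note: growth inhibition of ES3 cells, read out with a cell viability assay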
Description: SANGER: Inhibition of human ES3 cell growth in a cell viability assay.

ES6 = format: functional, cell-based;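 note: growth inhibition of human ES6 cells, read out with a cell viability assay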
Description: SANGER: Inhibition of human ES6 cell growth in a cell viability assay.

ES7 = format: functional, cell-based;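 note: growth inhibition of cultured human ES7 cells, read out as cell viability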
Description: SANGER: Inhibition of human ES7 cell growth in a cell viability assay.

GB-1 = format: functional, cell-based;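 note: growth of GB-1 cells judged by a viability assay, IC50 marks the concentration inhibiting growth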
Description: SANGER: Inhibition of human GB-1 cell growth in a cell viability assay.

GI-1 = format: functional, cell-based
Description: SANGER: Inhibition of human GI-1 cell growth in a cell viability assay.

HCC2218 = format: functional, cell-based;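 note: cell viability assay read-out, with IC50 given as the concentration that inhibits growth of the cell line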
Description: SANGER: Inhibition of human HCC2218 cell growth in a cell viability assay.

HDLM-2 = format: functional, cell-based;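 note: cell viability assay measuring suppression of HDLM-2 proliferation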
Description: SANGER: Inhibition of human HDLM-2 cell growth in a cell viability assay.

HT = format: functional, cell-based
Description: SANGER: Inhibition of human HT cell growth in a cell viability assay.

IST-MES1 = format: functional, cell-based;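 note: growth inhibition of IST-MES1 cells, measured with a cell viability assay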
Description: SANGER: Inhibition of human IST-MES1 cell growth in a cell viability assay.

J-RT3-T3-5 = format: functional, cell-based;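 note: cell viability assay measuring growth inhibition of human J-RT3-T3-5 cells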
Description: SANGER: Inhibition of human J-RT3-T3-5 cell growth in a cell viability assay.

JVM-3 = format: functional, cell-based;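 note: growth inhibition of human JVM-3 cells, read out with a cell viability assay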
Description: SANGER: Inhibition of human JVM-3 cell growth in a cell viability assay.

KG-1 = format: functional, cell-based;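 note: growth inhibition of KG-1 cells, read out by a cell viability assay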
Description: SANGER: Inhibition of human KG-1 cell growth in a cell viability assay.

KP-N-YS = format: functional, cell-based;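 note: cell viability assay measuring inhibition of cell line growth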
Description: SANGER: Inhibition of human KP-N-YS cell growth in a cell viability assay.

KU812 cell line = format: functional, cell-based;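 note: growth inhibition of KU812 cells, read out with a cell viability assay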
Description: SANGER: Inhibition of human KU812 cell growth in a cell viability assay.

KURAMOCHI = format: functional, cell-based;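 note: growth inhibition of KURAMOCHI cells, read out with a cell viability assay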
Description: SANGER: Inhibition of human KURAMOCHI cell growth in a cell viability assay.

LB2241-RCC = format: functional, cell-based;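 note: cell viability assay measuring how strongly the cultured human renal carcinoma line is prevented from growing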
Description: SANGER: Inhibition of human LB2241-RCC cell growth in a cell viability assay.

LB771-HNC = format: functional, cell-based;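 note: growth inhibition of LB771-HNC human cells, read out with a cell viability assay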
Description: SANGER: Inhibition of human LB771-HNC cell growth in a cell viability assay.

LS-513 = format: functional, cell-based
Description: SANGER: Inhibition of human LS-513 cell growth in a cell viability assay.

LU-134-A = format: functional, cell-based
Description: SANGER: Inhibition of human LU-134-A cell growth in a cell viability assay.

LU-139 = format: functional, cell-based
Description: SANGER: Inhibition of human LU-139 cell growth in a cell viability assay.

MC116 = format: functional, cell-based;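 note: growth inhibition of MC116 cells, read out with a cell viability assay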
Description: SANGER: Inhibition of human MC116 cell growth in a cell viability assay.

MHH-PREB-1 = format: functional, cell-based;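 note: cell viability assay measuring inhibition of proliferation of human MHH-PREB-1 cells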
Description: SANGER: Inhibition of human MHH-PREB-1 cell growth in a cell viability assay.

MLMA = format: functional, cell-based;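 note: growth inhibition of MLMA cells (human), determined through a cell viability readout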
Description: SANGER: Inhibition of human MLMA cell growth in a cell viability assay.

MOLT-4 = format: functional, cell-based;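 note: growth inhibition of MOLT-4 cells, determined with a cell viability readout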
Description: SANGER: Inhibition of human MOLT-4 cell growth in a cell viability assay.

MSTO-211H = format: functional, cell-based
Description: SANGER: Inhibition of human MSTO-211H cell growth in a cell viability assay.

MV4-11 = format: functional, cell-based, MV-4-11;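 note: cell viability readout measuring growth inhibition of human MV-4-11 cells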
Description: SANGER: Inhibition of human MV-4-11 cell growth in a cell viability assay.

MZ2-MEL = format: functional, cell-based;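 note: growth inhibition of MZ2-MEL cells read out with a cell viability assay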
Description: SANGER: Inhibition of human MZ2-MEL cell growth in a cell viability assay.

NB13 = format: functional, cell-based;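 note: cell viability readout measuring growth inhibition of human NB13 cells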
Description: SANGER: Inhibition of human NB13 cell growth in a cell viability assay.

NB69 = format: functional, cell-based;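 note: growth inhibition of NB69 cells, determined by a cell viability assay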
Description: SANGER: Inhibition of human NB69 cell growth in a cell viability assay.

NCI-H1299 = format: functional, cell-based;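 note: growth inhibition of human NCI-H1299 cells, read out by a cell viability assay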
Description: SANGER: Inhibition of human NCI-H1299 cell growth in a cell viability assay.

NCI-H1770 = format: functional, cell-based;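 note: growth inhibition of NCI-H1770 cells determined with a viability readout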
Description: SANGER: Inhibition of human NCI-H1770 cell growth in a cell viability assay.

NCI-H446 = format: functional, cell-based;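 note: growth inhibition of NCI-H446 cells determined by a cell viability assay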
Description: SANGER: Inhibition of human NCI-H446 cell growth in a cell viability assay.

NCI-H510A = format: functional, cell-based;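 note: growth inhibition of NCI-H510A cells, read out with a cell viability assay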
Description: SANGER: Inhibition of human NCI-H510A cell growth in a cell viability assay.

SNU1 = format: functional, cell-based;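 note: growth inhibition of human NCI-SNU-1 cells, measured with a cell viability assay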
Description: SANGER: Inhibition of human NCI-SNU-1 cell growth in a cell viability assay.

NH-12 = format: functional, cell-based;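 note: growth inhibition of NH-12 cells, read out with a cell viability assay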
Description: SANGER: Inhibition of human NH-12 cell growth in a cell viability assay.

OCI-AML2 = format: functional, cell-based;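 note: growth inhibition of OCI-AML2 cells, read out with a cell viability assay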
Description: SANGER: Inhibition of human OCI-AML2 cell growth in a cell viability assay.

OMC-1 = format: functional, cell-based;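 note: growth inhibition of the OMC-1 cell line, measured by a cell viability assay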
Description: SANGER: Inhibition of human OMC-1 cell growth in a cell viability assay.

ONS-76 = format: functional, cell-based;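 note: growth inhibition of human ONS-76 cells, read out with a cell viability assay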
Description: SANGER: Inhibition of human ONS-76 cell growth in a cell viability assay.

RPMI-8226 = format: functional, cell-based
Description: SANGER: Inhibition of human RPMI-8226 cell growth in a cell viability assay.

Ramos-2G6-4C10 = format: functional, cell-based;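 note: growth inhibition of the cell line, measured by a cell viability read-out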
Description: SANGER: Inhibition of human Ramos-2G6-4C10 cell growth in a cell viability assay.

SF-539 = format: functional, cell-based;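 note: Read-out is a cell viability assay, with IC50 reflecting inhibition of cell growth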
Description: SANGER: Inhibition of human SF539 cell growth in a cell viability assay.

SK-MEL-1 = format: functional, cell-based;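 note: growth inhibition of human SK-MEL-1 cells, read out by a cell viability assay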
Description: SANGER: Inhibition of human SK-MEL-1 cell growth in a cell viability assay.

SK-N-FI = format: functional, cell-based;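 note: cell viability assay measuring growth inhibition of human SK-N-FI cells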
Description: SANGER: Inhibition of human SK-N-FI cell growth in a cell viability assay.

SNB-75 = format: functional, cell-based;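 note: cell viability assay measuring growth inhibition of human SNB-75 cells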
Description: SANGER: Inhibition of human SNB75 cell growth in a cell viability assay.

SW684 = format: functional, cell-based;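 note: growth inhibition of human SW684 cells, measured by a cell viability assay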
Description: SANGER: Inhibition of human SW684 cell growth in a cell viability assay.

SW 954 = format: functional, cell-based;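 note: growth inhibition of SW954 human cancer cells, read out as cell viability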
Description: SANGER: Inhibition of human SW954 cell growth in a cell viability assay.

SW982 = format: functional, cell-based;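 note: growth inhibition of SW982 cells, read out with a cell viability assay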
Description: SANGER: Inhibition of human SW982 cell growth in a cell viability assay.

697 = format: functional, cell-based
Description: SANGER: Inhibition of human 697 cell growth in a cell viability assay.

ALL-PO = format: functional, cell-based;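 note: growth inhibition of ALL-PO cells, read out by a cell viability assay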
Description: SANGER: Inhibition of human ALL-PO cell growth in a cell viability assay.

ATN-1 = format: functional, cell-based;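 note: growth inhibition of human ATN-1 cells, read out with a cell viability assay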
Description: SANGER: Inhibition of human ATN-1 cell growth in a cell viability assay.

BB30-HNC = format: functional, cell-based;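 note: growth inhibition of the cultured cell line, read out by a cell viability assay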
Description: SANGER: Inhibition of human BB30-HNC cell growth in a cell viability assay.

BB65-RCC = format: functional, cell-based;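 note: growth inhibition of the cell line, measured with a cell viability assay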
Description: SANGER: Inhibition of human BB65-RCC cell growth in a cell viability assay.

Becker = format: functional, cell-based;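 note: growth inhibition of Becker cells, read out with a cell viability assay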
Description: SANGER: Inhibition of human Becker cell growth in a cell viability assay.

TGBC24TKB = format: functional, cell-based;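 note: growth inhibition of human TGBC24TKB cells, read out with a cell viability assay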
Description: SANGER: Inhibition of human TGBC24TKB cell growth in a cell viability assay.

U-266 = format: functional, cell-based
Description: SANGER: Inhibition of human U-266 cell growth in a cell viability assay.

Structure (SMILES): Cc1[nH]c(/C=C2\C(=O)Nc3ccc(S(=O)(=O)Cc4c(Cl)cccc4Cl)cc32)c(C)c1C(=O)N1CCC[C@@H]1CN1CCCC1 [PHA-665752]
- IC50 (CP66-MEL): > 2000 nM
- IC50 (CTB-1): > 2000 nM
- IC50 (CW-2): > 2000 nM
- IC50 (D283 Med): > 2000 nM
- IC50 (D-502MG): > 2000 nM
- IC50 (DMS-114): > 2000 nM
- IC50 (DMS-79): > 2000 nM
- IC50 (DU-4475): > 2000 nM
- IC50 (EC-GI-10): > 2000 nM
- IC50 (ES1): > 2000 nM
- IC50 (ES3): > 2000 nM
- IC50 (ES6): > 2000 nM
- IC50 (ES7): > 2000 nM
- IC50 (GB-1): > 2000 nM
- IC50 (GI-1): > 2000 nM
- IC50 (HCC2218): > 2000 nM
- IC50 (HDLM-2): > 2000 nM
- IC50 (HT): > 2000 nM
- IC50 (IST-MES1): > 2000 nM
- IC50 (J-RT3-T3-5): > 2000 nM
- IC50 (JVM-3): > 2000 nM
- IC50 (KG-1): > 2000 nM
- IC50 (KP-N-YS): > 2000 nM
- IC50 (KU812 cell line): > 2000 nM
- IC50 (KURAMOCHI): > 2000 nM
- IC50 (LB2241-RCC): 157 nM
- IC50 (LB771-HNC): > 2000 nM
- IC50 (LS-513): > 2000 nM
- IC50 (LU-134-A): > 2000 nM
- IC50 (LU-139): > 2000 nM
- IC50 (MC116): > 2000 nM
- IC50 (MHH-PREB-1): > 2000 nM
- IC50 (MLMA): > 2000 nM
- IC50 (MOLT-4): > 2000 nM
- IC50 (MSTO-211H): > 2000 nM
- IC50 (MV4-11): 1290 nM
- IC50 (MZ2-MEL): > 2000 nM
- IC50 (NB13): > 2000 nM
- IC50 (NB69): > 2000 nM
- IC50 (NCI-H1299): > 2000 nM
- IC50 (NCI-H1770): > 2000 nM
- IC50 (NCI-H446): > 2000 nM
- IC50 (NCI-H510A): > 2000 nM
- IC50 (SNU1): > 2000 nM
- IC50 (NH-12): > 2000 nM
- IC50 (OCI-AML2): > 2000 nM
- IC50 (OMC-1): > 2000 nM
- IC50 (ONS-76): > 2000 nM
- IC50 (RPMI-8226): > 2000 nM
- IC50 (Ramos-2G6-4C10): > 2000 nM
- IC50 (SF-539): > 2000 nM
- IC50 (SK-MEL-1): > 2000 nM
- IC50 (SK-N-FI): > 2000 nM
- IC50 (SNB-75): > 2000 nM
- IC50 (SW684): > 2000 nM
- IC50 (SW 954): > 2000 nM
- IC50 (SW982): > 2000 nM
- IC50 697: > 2000 nM
- IC50 (ALL-PO): 813 nM
- IC50 (ATN-1): > 2000 nM
- IC50 (BB30-HNC): > 2000 nM
- IC50 (BB65-RCC): > 2000 nM
- IC50 (Becker): > 2000 nM
- IC50 (TGBC24TKB): > 2000 nM
- IC50 (U-266): > 2000 nM

Structure (SMILES): CC(C)=CC[C@@H](O)C1=CC(=O)c2c(O)ccc(O)c2C1=O [SHIKONIN]
- IC50 (CP66-MEL): 2400 nM
- IC50 (CTB-1): 859 nM
- IC50 (CW-2): > 16000 nM
- IC50 (D283 Med): 835 nM
- IC50 (D-502MG): 4370 nM
- IC50 (DMS-114): > 16000 nM
- IC50 (DMS-79): > 16000 nM
- IC50 (DU-4475): 180 nM
- IC50 (EC-GI-10): > 16000 nM
- IC50 (ES1): 503 nM
- IC50 (ES3): 656 nM
- IC50 (ES6): 7880 nM
- IC50 (ES7): 548 nM
- IC50 (GB-1): 1330 nM
- IC50 (GI-1): 568 nM
- IC50 (HCC2218): 496 nM
- IC50 (HDLM-2): > 16000 nM
- IC50 (HT): 1090 nM
- IC50 (IST-MES1): 1700 nM
- IC50 (J-RT3-T3-5): 2090 nM
- IC50 (JVM-3): > 16000 nM
- IC50 (KG-1): 1600 nM
- IC50 (KP-N-YS): 352 nM
- IC50 (KU812 cell line): < 62.5 nM
- IC50 (KURAMOCHI): 3160 nM
- IC50 (LB2241-RCC): 1290 nM
- IC50 (LB771-HNC): > 16000 nM
- IC50 (LS-513): 1480 nM
- IC50 (LU-134-A): 810 nM
- IC50 (LU-139): 6260 nM
- IC50 (MC116): 1790 nM
- IC50 (MHH-PREB-1): 252 nM
- IC50 (MLMA): 539 nM
- IC50 (MOLT-4): 410 nM
- IC50 (MSTO-211H): > 16000 nM
- IC50 (MV4-11): 274 nM
- IC50 (MZ2-MEL): 385 nM
- IC50 (NB13): 317 nM
- IC50 (NB69): 213 nM
- IC50 (NCI-H1299): 1070 nM
- IC50 (NCI-H1770): 243 nM
- IC50 (NCI-H446): > 16000 nM
- IC50 (NCI-H510A): > 16000 nM
- IC50 (SNU1): 1600 nM
- IC50 (NH-12): 850 nM
- IC50 (OCI-AML2): 298 nM
- IC50 (OMC-1): 1750 nM
- IC50 (ONS-76): 358 nM
- IC50 (RPMI-8226): 472 nM
- IC50 (Ramos-2G6-4C10): 315 nM
- IC50 (SF-539): 857 nM
- IC50 (SK-MEL-1): > 16000 nM
- IC50 (SK-N-FI): 7690 nM
- IC50 (SNB-75): 746 nM
- IC50 (SW684): 777 nM
- IC50 (SW 954): 467 nM
- IC50 (SW982): 60.2 nM
- IC50 697: 876 nM
- IC50 (ALL-PO): 315 nM
- IC50 (ATN-1): 849 nM
- IC50 (BB30-HNC): 243 nM
- IC50 (BB65-RCC): 695 nM
- IC50 (Becker): 1580 nM
- IC50 (TGBC24TKB): > 16000 nM
- IC50 (U-266): 675 nM
